Experimental data: paper PMC7614683, “A small molecule PI3Kα activator for cardioprotection and neuroregeneration” (Nature, 2023)
Values joined by “and” are separate entries in the source; they are usually repeats but may differ in a detail not shown here. Equal entries are not always repeated.

Key:
[1] = tested on: rat sciatic nerve; experiment: Rat sciatic nerve crush injury model; format: in vivo; conditions: 21 days, single animals
Source text: We used the rat sciatic nerve crush model of peripheral nerve injury and regeneration[82]–[84]. Adult female Sprague Dawley rats (230-280 g, n=10, Charles River, UK) were anaesthetised by isoflurane inhalation in an induction chamber (5% isoflurane in O2, 0.8 l/min). Anaesthesia was maintained with 1.5-2.5% isoflurane inhalation, and the left sciatic nerve exposed at mid-thigh level.
The nerve was crushed by application of constant pressure using fully closed sterile type 4 tweezers (TAAB) for 15 sec. This was repeated two more times at the same point, with 45° rotation between each crush. The injury site was marked with a 10/0 epineurial non-absorbant suture (Ethicon). Following injury, a single 2 μl injection of 1938 solution (5 μM in sterile H2O) or vehicle (sterile dH2O) was administered proximal to the crush site with a 10 μl Hamilton syringe. An osmotic minipump (Alzet 1004, Charles River, UK) was also implanted between the muscle layers, adjacent to the nerve oriented with the outlet nearest to the crush site, loaded with 1938 solution (100 μM in sterile H2O) or vehicle (sterile H2O). Animals were randomly assigned to groups (n=5 per group) and one experimenter was kept blind to condition for conducting functional and histological analyses. Overlying muscle layers were closed using 4/0 sutures (Ethicon) and the skin was closed with wound clips (Clay Adams). Animals were left to recover for 21 days.
At the end-point of the experiment (21 days), rats were anaesthetised and the sciatic nerve exposed as described above. A reference, ground (Natus) and recording electrode (Ambu Neuroline) were attached above the hip bone, into the tail, and into the tibialis anterior muscle respectively. A microchannel neurointerface (MNI) was placed approximately 2 mm proximal to the injury site and used to stimulate the nerve. The MNI was manufactured using a previously documented protocol. Electrode impedance of the MNI was 27.1 ±19.8 kΩ at 1k Hz. Compound muscle action potential (CMAP) was obtained by sciatic nerve stimulation with square wave pulses of 100 μsec with intensity from 1-10 mA. Stimulus was increased in 0.2 mA steps until muscle response amplitude no longer increased. CMAP amplitude was measured from peak to peak and recorded in triplicate for both the ipsilateral and contralateral side. The CMAP with the largest amplitude was selected for analysis.
A modified multipoint stimulation technique was used to calculate Motor Unit Number Estimation (MUNE)[86]–[88]. Incremental responses were obtained by delivering a submaximal stimulation of 100 μsec duration at a frequency of 1Hz while increasing the stimulus intensity in increments of 0.02 mA to obtain minimal responses. The initial response was obtained with a stimulus intensity of between 0.21 mA and 0.70 mA. […] Additional Single Motor Unit Potentials (SMUPs) were evoked by stimulation in increments of 0.02 mA to obtain a minimum of four additional increments. The position of the stimulating electrode and the location of the recording electrode was changed to allow the recording of SMUPs from a different site of the muscle. This process was repeated at least three times. The CMAP was divided by the mean magnitude of SMUPs to quantify MUNE.
After electrophysiology recordings, animals were culled with sodium pentobarbital injection according to local regulations. Sciatic nerves, including the common peroneal branch, and tibialis anterior muscles were collected and placed in 4% paraformaldehyde (PFA). Nerve samples were fixed overnight in 4% PFA at 4°C before transferring to PBS. Nerve samples were divided into sciatic nerves including the crush site, and the common peroneal branch for sectioning. Nerve samples were immersed in 30% sucrose overnight at 4°C, then snap frozen in Neg-50 frozen section medium (Thermo Scientific) using liquid nitrogen cooled isopentane. […]

[2] = molecular target: PI3Kα H1047R mutant (Homo sapiens, UniProt P42336, H1047R); experiment: ADP-Glo catalytic activity, oncogenic mutant H1047R; format: biochemical
Chain of PI3Kα H1047R mutant (P42336 whole entry H1047R): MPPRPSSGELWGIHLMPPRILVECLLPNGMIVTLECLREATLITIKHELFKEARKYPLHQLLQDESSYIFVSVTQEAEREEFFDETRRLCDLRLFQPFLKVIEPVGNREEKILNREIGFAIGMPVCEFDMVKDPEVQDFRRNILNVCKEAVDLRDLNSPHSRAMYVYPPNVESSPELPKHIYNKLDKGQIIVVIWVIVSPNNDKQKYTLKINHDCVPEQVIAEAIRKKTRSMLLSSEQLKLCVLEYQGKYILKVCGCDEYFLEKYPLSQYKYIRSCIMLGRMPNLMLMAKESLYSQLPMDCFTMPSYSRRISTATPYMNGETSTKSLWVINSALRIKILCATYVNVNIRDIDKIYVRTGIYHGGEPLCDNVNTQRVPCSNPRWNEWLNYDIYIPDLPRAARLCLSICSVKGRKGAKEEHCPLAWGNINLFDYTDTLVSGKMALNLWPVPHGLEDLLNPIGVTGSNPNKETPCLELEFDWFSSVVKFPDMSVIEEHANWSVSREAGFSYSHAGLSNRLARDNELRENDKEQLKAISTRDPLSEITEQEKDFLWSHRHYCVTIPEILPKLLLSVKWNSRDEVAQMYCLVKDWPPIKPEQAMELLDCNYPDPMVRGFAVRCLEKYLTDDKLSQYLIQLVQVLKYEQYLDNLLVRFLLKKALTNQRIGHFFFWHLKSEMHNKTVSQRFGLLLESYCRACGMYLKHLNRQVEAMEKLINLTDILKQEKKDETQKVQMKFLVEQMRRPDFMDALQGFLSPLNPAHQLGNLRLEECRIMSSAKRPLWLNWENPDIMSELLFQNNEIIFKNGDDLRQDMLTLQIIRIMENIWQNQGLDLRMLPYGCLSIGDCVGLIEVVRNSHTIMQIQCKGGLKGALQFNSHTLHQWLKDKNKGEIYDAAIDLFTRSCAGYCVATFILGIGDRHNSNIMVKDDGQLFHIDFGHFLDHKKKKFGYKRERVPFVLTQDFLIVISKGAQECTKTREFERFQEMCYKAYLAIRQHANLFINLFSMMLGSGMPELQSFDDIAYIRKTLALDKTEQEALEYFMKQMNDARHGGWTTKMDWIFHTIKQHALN
Chain of PI3Kα H1047R mutant (P27986 whole entry partner): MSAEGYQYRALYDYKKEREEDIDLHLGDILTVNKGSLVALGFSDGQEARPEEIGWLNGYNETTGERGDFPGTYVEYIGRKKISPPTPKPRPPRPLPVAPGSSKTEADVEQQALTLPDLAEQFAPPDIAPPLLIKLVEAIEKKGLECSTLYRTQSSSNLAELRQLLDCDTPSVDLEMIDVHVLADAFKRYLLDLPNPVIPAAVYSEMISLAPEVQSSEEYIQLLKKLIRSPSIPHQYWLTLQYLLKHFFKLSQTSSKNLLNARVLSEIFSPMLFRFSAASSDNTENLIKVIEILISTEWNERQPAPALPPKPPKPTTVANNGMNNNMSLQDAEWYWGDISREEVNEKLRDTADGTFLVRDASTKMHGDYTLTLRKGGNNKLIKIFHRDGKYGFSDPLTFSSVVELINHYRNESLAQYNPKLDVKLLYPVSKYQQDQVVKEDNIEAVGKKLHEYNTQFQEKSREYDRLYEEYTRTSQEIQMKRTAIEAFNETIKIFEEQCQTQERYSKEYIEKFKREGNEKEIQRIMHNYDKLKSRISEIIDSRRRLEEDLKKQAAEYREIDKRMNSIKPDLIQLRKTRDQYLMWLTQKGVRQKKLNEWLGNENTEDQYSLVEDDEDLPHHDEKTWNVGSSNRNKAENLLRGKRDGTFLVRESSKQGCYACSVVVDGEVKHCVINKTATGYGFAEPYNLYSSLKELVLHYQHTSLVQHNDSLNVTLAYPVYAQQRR
Procedure: For characterisation of the effects of 1938 on in vitro PI3K enzymology, all reactions were performed at room temperature with 384 white-polystyrene plates (Corning #3574). The final DMSO concentration in the assay was between 0.5%-1.8%. The reaction mixture contained 2 μl PI3K enzyme, 2 μl compound and/or pY and 2 μl of liposome substrate mixed with ATP. ATP was used at a final concentration of 200 μM, unless otherwise stated. The enzyme and compounds were pre-incubated for 10 min prior to addition of substrate. The reaction was allowed to proceed for up to 45 min at room temperature, before addition of 6 μl of ADP-Glo R1 to terminate the reaction. The plate was incubated for 60 min, followed by addition of 12 μl of ADP-Glo R2 and incubated further for 60 min in the dark. Data was expressed as velocity (nmol of ADP generated/nmol of enzyme/sec). ADP-ATP standard curves were performed according to the manufacturer’s instructions. Luminescence was read using a PHERAstar® plate reader with software version 5.41, and analyses were performed using GraphPad Prism 8/9.

[3] = sciatic nerve 3 mm distal to injury
[4] = sciatic nerve 6 mm distal to injury

Compound: CCN1CCN(c2ccc(Nc3cc(Nc4cccc5c4N(C(C)=O)CC5)ccn3)cc2)CC1 [Compound 1938]
- Nerve Branch ChAT (ChAT-positive motor axons, distal common peroneal nerve) [1]: increase in 1938-treated animals in the number of choline acetyltransferase (ChAT)-positive motor axons and 34 and 72 and 42 and 49 and 62
- Axons, ChAT [1, 3]: 1228 and 1010 and 1060 and 720 and 1883
- Axons, Neurofilament [1, 3]: 7100 and 6477 and 6615 and 8292 and 8493
- Axons, ChAT [1, 4]: 922 and 986 and 763 and 966 and 1022
- Axons, Neurofilament [1, 4]: 5299 and 5863 and 4746 and 5437 and 5016
- CMAP Recovery ([1]; tibialis anterior muscle): greater compound muscle action potential (CMAP) recovery and 16.9542 % contralateral and 21.941 % contralateral and 17.4705 % contralateral and 17.5154 % contralateral and 28.7184 % contralateral
- MUNE Recovery ([1]; tibialis anterior muscle): increased motor unit number estimation and 60.8971 % contralateral and 47.6617 % contralateral and 40.6292 % contralateral and 44.6256 % contralateral and 48.3614 % contralateral
- NMJ ([1]; tibialis anterior muscle): 17 % reinnervation and 31 % reinnervation and 16 % reinnervation and 23 % reinnervation and 26 % reinnervation
- activation of H1047R mutant [2]: levels comparable with stimulation with pY
